Patent US20070178151A1, “Spray dried pharmaceutical compositions” (priority 2004, published 2007)
Converted amounts (≈) assume the structure as drawn.

Assay: aqueous solubility of talnetant
Assay type: physicochemical
Settings: aqueous medium
From the text: Typically drugs with low aqueous solubility are absorbed slowly across the walls of the gastrointestinal tract (GIT) due to poor dissolution of the solid in the GIT leading to a small diffusive driving force.

## CC[C@H](NC(=O)c1c(O)c(-c2ccccc2)nc2ccccc12)c1ccccc1 [Talnetant, (S)-(−)-N-(α-ethylbenzyl)-3-hydroxy-2-phenylquinoline4-carboxamide]
Aqueous buffer, pH 7.0
  solubility: ~1 µg/mL (≈ 2.61 µM)
pH 1, simulated gastric fluid
  solubility: ~30 µg/mL (≈ 78.4 µM)
